Consider one substance from publication PMC5854708, “Grass Carp Prolactin Gene: Structural Characterization and Signal Transduction for PACAP-induced Prolactin Promoter Activity” (Scientific Reports, 2018).

Experiment [1] relates to ERK in GH3 cells. The settings on record: cited from earlier work. From the text:
(§1) In primary pituitary cells, PRL production induced by PACAP via functional coupling of cAMP/PKA−, Ca^2+/CaM−, and MAPK-dependent cascades. At the transcription level, cAMP/PKA and Ca^2+/CaM/CaM-II pathways are consistently involved in the PACAP regulation on PRL promoter activity. In mammalian cell models, e.g., in human SH-SY5Y neuroblastoma cells, functional coupling of MAPK (e.g., Erk1/2 and P38^MAPK) with cAMP-dependent mechanism has been reported. […] However, in our studies with αT3-1 cells, the inhibitors f ...

Experiment [2] deals with ERK in αT3–1 cells. As to conditions: cited from earlier work.
Text: as §1

Experiment [3] deals with pCREB in grass carp pituitary cells. The experiment can be described thus: Western blot of pCREB in primary grass carp pituitary cells. The settings on record: oPACAP38, 24 hrs. Background: A western blot detects proteins with antibodies after separation by electrophoresis.

Consider “pituitary adenylate cyclase-activating peptide [PACAP]”, for which the results for the ERK activation entry in experiment [1] and in experiment [2] were “triggered ERK activation” and “stimulates ERK activation”, respectively. Besides, the CREB phosphorylation result in experiment [3] is “significantly enhanced CREB phosphorylation”.
